# From patent US10073082B2, “Proteasome inhibition assay and methods of use” (UNIVERSITY HEALTH NETWORK, priority 2013, dated 2018)
# Peptide text beside a SMILES is read from it. * marks the point of attachment. Cbz = O=C(OCc1ccccc1)*
# Key:
# Type in all cases: cell-based, human
# [1] = tested on: peripheral blood monocytes; assay: IκB degradation agonists in whole blood: IκB degradation and signaling pathway activation in monocytes; details: for Pathways Activated: Target Cell Population: Monocytes
# Description: (§1) Whole blood samples from normal human donors were collected. 100 μL aliquots of the whole blood were inserted into the bottom of 12×75 mm tubes. In order to reduce the potential for contamination of the sample with unfixed cells, blood was removed from the side of the tubes with a cotton swab. 1-2 μL of a proteasome effector was added to a first portion of the tubes and these tubes were incubated for 2 hours at 37° C. in a water bath. In this example, the proteasome effector was Bortezomib or MG-132, both proteasome inhibitors. Following pretreatment with the proteasome effector, 2 μL of […] stock solution (100 ng) of an IκB degradation agonist was added to the tubes and the tubes were incubated from 1 minute to 60 minutes at 37° C. in a water bath. In this example, the agonist was lipopolysaccharide (LPS). A second portion of the tubes were treated with the IκB degradation agonist and no proteasome effector. 2 μL of an IκB degradation agonist was added to these tubes and the tubes were incubated from 1 minute to 60 minutes as described above. For control tubes, 2 μL of phosphate buffered saline (PBS) was added to the tubes and the tubes were incubated as described above.
# (§2) Following incubation, the cells were fixed and permeabilized with a PerFix-P® kit (Beckman Coulter, Inc., Brea. Calif.) according to the manufacturer's instructions. The fixed and permeabilized cells were then washed with 2 mL of Wash Buffer (PBS (w/o Ca++/Mg++) with 2% fetal bovine serum (FBS), sterile filtered (0.22 μm filter)) in the tubes and centrifuged at 500×g for 4 minutes. The cell pellet was resuspended in 2 mL of cold (4° C.) Wash Buffer, centrifuged at 500×g for 4 minutes, and the supernatant was aspirated.
# (§3) Following the above wash steps, the fixed and permeabilized cells were resuspended in 100 μL of cold Wash Buffer comprising antibodies to specific intracellular antigens (e.g., signaling targets including P-ERK, P-Akt, P-p38, P-SAPK, P-S6, and antibodies to IκB). The antibodies were labeled with different fluorochromes (e.g. fluorophores) to facilitate their-individual measurement of the intracellular antigens. In order to target specific cell populations in the assay, antibodies capable of differentiating cell populations within the blood sample were also included in some of the tubes. For example, anti-CD14 antibodies were included to specifically label monocytes, anti-CD3 antibodies or anti-CD19 antibodies were included to specifically label T or B-cells respectively, and/or anti-CD38/CD138 antibodies were included to specifically label plasma cells. The cells were incubated with the antibodies for 30 minutes at room temperature and then the cells were washed in 2 mL of cold Wash Buffer and centrifuged as described above. The supernatant was aspirated and the cell pellet was resuspended in 350 μL of Resuspension Buffer (PerFix-P® kit) and analyzed on a flow cytometer (GALLIOS™) using a protocol with defined population gates and series of dual parameter histograms. A CD45-KO vs. SS dual parameter histogram was collected and a gate around the leukocyte population based on the CD45+ fluorescence and SS characteristics was drawn to exclude debris (CD45 negative events). A minimum of 2,500 CD14+ events were collected. A stop count region was set from the CD14-PC7 vs. SS histogram gated on monocytes. Dual parameter histograms gated on the appropriate populations were created to measure the populations of interest. The collected flow cytometric data was analyzed using KALUZA™ software.
# (§4) Phosphorylation of signaling pathways activated by TNF-α, including ERK, Akt, and the ribosomal S6 protein, was monitored together with the degradation of IκB in peripheral blood WBCs. Whole blood samples were treated, activated, and processed as described in Example 1 and the degradation of IκB in peripheral blood cells was monitored by flow cytometry as described in Example 1. The IκB degradation agonist used in this example was TNF-α. […]
# [2] = tested on: peripheral blood lymphocytes; assay: IκB degradation agonists in whole blood: IκB degradation and signaling pathway activation in lymphocytes; details: for Pathways Activated: Target Cell Population: Lymphocytes (subpopulation); for Akt activation in lymphocytes / ERK activation in lymphocytes / degradation of IκB in lymphocytes / S6 activation in lymphocytes: agonist alone
# Description: as §1, §2, §3, §4
# [3] = tested on: granulocytes; assay: IκB degradation agonists in whole blood: IκB degradation and signaling pathway activation in granulocytes; details: Target Cell Population: Granulocytes
# Description: as §1, §2
# (§5) Following the above wash steps, the fixed and permeabilized cells were resuspended in 100 μL of cold Wash Buffer comprising antibodies to specific intracellular antigens (e.g., signaling targets including P-ERK, P-Akt, P-p38, P-SAPK, P-S6, and antibodies to IκB). The antibodies were labeled with different fluorochromes (e.g. fluorophores) to facilitate their-individual measurement of the intracellular antigens. […] The supernatant was aspirated and the cell pellet was resuspended in 350 μL of Resuspension Buffer (PerFix-P® kit) and analyzed on a flow cytometer (GALLIOS™) using a protocol with defined population gates and series of dual parameter histograms. A CD45-KO vs. SS dual parameter histogram was collected and a gate around the leukocyte population based on the CD45+ fluorescence and SS characteristics was drawn to exclude debris (CD45 negative events). […] The collected flow cytometric data was analyzed using KALUZA™ software.
# [4] = tested on: IκB in peripheral blood monocytes; assay: Flow cytometry assay, whole blood pretreated with effector: LPS induced degradation of IκB in monocytes; details: whole blood pretreated with compound, then LPS
# Description: as §1, with “2 μL of an IκB degradation agonist was added to these tubes and the tubes were incubated from 1 minute to 60 minutes as described above. For control tubes, 2 μL of phosphate buffered saline (PBS) was added to the tubes and the tubes were incubated as described above.” left out
# as §5, with “IκB).” for “IκB). The antibodies were labeled with different fluorochromes (e.g. fluorophores) to facilitate their-individual measurement of the intracellular antigens.”
# (§6) Phosphorylation of signaling pathways activated by LPS, including ERK, Akt (activated by PI3 Kinase), and the ribosomal S6 protein (a marker of protein synthesis) were also monitored together with the degradation of IκB. […] The degradation of IκB in cells pretreated with MG-132 or GDC-0941 was monitored by flow cytometry as described in Example 1. […]
# [5] = tested on: IκB in peripheral blood lymphocytes; assay: Flow cytometry assay, whole blood pretreated with effector: LPS induced degradation of IκB in lymphocytes; details: whole blood pretreated with inhibitor, then LPS
# Description: (§7) The assay generally comprises treating whole blood with an IκB degradation agonist and/or proteasome effector, fixing the blood cells, permeabilizing the fixed bloods cells, treating the fixed and permeabilized cells with an alcohol treatment to unmask intracellular phosphor-epitopes, and then staining the treated cells with antibodies for flow cytometry analysis.
# (§8) Whole blood samples from normal human donors were collected. 100 μL aliquots of the whole blood were inserted into the bottom of 12×75 mm tubes. In order to reduce the potential for contamination of the sample with unfixed cells, blood was removed from the side of the tubes with a cotton swab. […]
# (§9) Following the above wash steps, the fixed and permeabilized cells were resuspended in 100 μL of cold Wash Buffer comprising antibodies to specific intracellular antigens (e.g., signaling targets including P-ERK, P-Akt, P-p38, P-SAPK, P-S6, and antibodies to IκB). […] The supernatant was aspirated and the cell pellet was resuspended in 350 μL of Resuspension Buffer (PerFix-P® kit) and analyzed on a flow cytometer (GALLIOS™) using a protocol with defined population gates and series of dual parameter histograms. A CD45-KO vs. SS dual parameter histogram was collected and a gate around the leukocyte population based on the CD45+ fluorescence and SS characteristics was drawn to exclude debris (CD45 negative events). […]
# [6] = tested on: IκB in granulocytes; assay: Flow cytometry assay, whole blood pretreated with effector: IκB levels in granulocytes after LPS; details: whole blood pretreated with inhibitor, then LPS; 60 minutes time period
# Description: as §7, §8, §9
# [7] = tested on: P-ERK (P-Thr202/P-Tyr204) in peripheral blood monocytes; assay: ERK phosphorylation in LPS activated monocytes from pretreated whole blood; details: for "early" (first) ERK phosphorylation peak / "late" (second) ERK activation peak: LPS activated monocytes; for "early" (first) ERK phosphorylation peak: 2-4 minutes; for "late" (second) ERK activation peak: about 10 minutes
# Description: as §1, §2
# as §3, with “In order to target specific cell populations in the assay, antibodies capable of differentiating cell populations within the blood sample were also included in some of the tubes.” left out, “A stop count region was set from the CD14-PC7 vs. SS histogram gated on monocytes. Dual parameter histograms gated on the appropriate populations were created to measure the populations of interest.” left out
# as §6
# [8] = tested on: P-Akt (P-Ser473) in peripheral blood monocytes; assay: Akt phosphorylation in LPS activated monocytes from pretreated whole blood
# Description: (§10) Whole blood samples from normal human donors were collected. 100 μL aliquots of the whole blood were inserted into the bottom of 12×75 mm tubes. In order to reduce the potential for contamination of the sample with unfixed cells, blood was removed from the side of the tubes with a cotton swab. 1-2 μL of a proteasome effector was added to a first portion of the tubes and these tubes were incubated for 2 hours at 37° C. in a water bath. In this example, the proteasome effector was Bortezomib or MG-132, both proteasome inhibitors. […]
# (§11) Following the above wash steps, the fixed and permeabilized cells were resuspended in 100 μL of cold Wash Buffer comprising antibodies to specific intracellular antigens (e.g., signaling targets including P-ERK, P-Akt, P-p38, P-SAPK, P-S6, and antibodies to IκB). […] The supernatant was aspirated and the cell pellet was resuspended in 350 μL of Resuspension Buffer (PerFix-P® kit) and analyzed on a flow cytometer (GALLIOS™) using a protocol with defined population gates and series of dual parameter histograms. A CD45-KO vs. SS dual parameter histogram was collected and a gate around the leukocyte population based on the CD45+ fluorescence and SS characteristics was drawn to exclude debris (CD45 negative events). […] The collected flow cytometric data was analyzed using KALUZA™ software. […]
# [9] = tested on: P-S6 (P-Ser235/P-Ser236) in peripheral blood monocytes; assay: S6 phosphorylation in LPS activated monocytes from pretreated whole blood
# Description: as §10, §11
# [10] = pathway: P-ERK/MAP kinase (Ras > Raf)
# [11] = pathway: Tpl-2 > ERK/MAP kinase
Molecule,ERK activation in monocytes ([1]; agonist alone),degradation of IκB in monocytes ([1]; agonist alone),Akt activation in lymphocytes [2],ERK activation in lymphocytes [2],degradation of IκB in lymphocytes [2],Pathways Activated [3],effect on LPS induced degradation of IκB in monocytes [4],"""early"" (first) ERK phosphorylation peak [7]","""late"" (second) ERK activation peak [7]",Akt activation [8],Pathways Activated ([1]; pathway: IκB > NFκB),"Pathways Activated [1, 11]",Akt activation in monocytes ([1]; agonist alone),Pathways Activated ([2]; pathway: PI3 kinase > Akt),S6 activation in lymphocytes [2],further results
CCCCCCCCCCCCCC(=O)O[C@@H]1[C@@H](C)[C@@]2(O)[C@@H](C=C(CO)C[C@]3(O)C(=O)C(C)=C[C@@H]23)[C@@H]2C(C)(C)[C@]12OC(C)=O [PMA],activation of ERK,no degradation of IκB,not activated,activation of ERK,stimulated the degradation of IκB,P-ERK/MAP kinase,–,–,–,–,–,–,–,–,–,"Pathways Activated ([1]; pathway: (IκB is not degraded)): (IκB is not degraded); Pathways Activated [1, 10]: P-ERK/MAP kinase (Ras > Raf); Pathways Activated ([2]; pathway: IκB > NFκB (PKC?)): IκB > NFκB (PKC?); Pathways Activated [2, 10]: P-ERK/MAP kinase (Ras > Raf); Pathways Activated ([2]; pathway: P-S6 (P-ERK)): P-S6 (P-ERK); lymphocytes with both degradation of IκB and activation of ERK ([2]; over the 15 min time course): approximately 50%"
CC(C)C[C@@H](C=O)NC(=O)[C@H](CC(C)C)NC(=O)[C@H](CC(C)C)NC(=O)OCc1ccccc1 [MG-132] (Cbz-Leu-Leu-Leu-aldehyde),–,–,–,–,–,–,inhibited degradation of IκB,not the first,inhibited,no effect,–,–,–,–,–,"LPS induced degradation of IκB in lymphocytes [5]: No significant degradation; degradation of IκB in granulocytes [6]: No significant degradation; MFI of the S6 phosphorylation response, lower than in the sample treated with only LPS [9]: approximately 50%"
TNFα,activated,induced degradation of IκB,Neither Akt nor S6 was activated,no apparent response,induced degradation of IκB,P-p38 MAP kinase,–,–,–,–,IκB > NFκB,Tpl-2 > ERK/MAP kinase,Neither Akt nor S6 was activated,PI3 kinase > Akt,Neither Akt nor S6 was activated,Pathways Activated ([1]; pathway: PI3 kinase > Akt): PI3 kinase > Akt; S6 activation in monocytes ([1]; agonist alone): Neither Akt nor S6 was activated; time of peak loss of IκB after stimulation ([1]; monocytes): 10 min; Pathways Activated ([2]; pathway: ERK/MAP kinase (Tpl-2)): ERK/MAP kinase (Tpl-2); Pathways Activated ([2]; pathway: IκB > NFκB): IκB > NFκB; time of peak loss of IκB after stimulation ([2]; lymphocytes): 15 min
N#CC(=C(/N)Sc1ccccc1N)/C(C#N)=C(\N)Sc1ccccc1N [U0126],–,–,–,–,–,–,–,–,–,–,–,–,–,–,–,"ERK activation ([7]; LPS stimulated monocytes, single late ERK peak 8-10 minutes, FIG. 19): inhibited"
CS(=O)(=O)N1CCN(Cc2cc3nc(-c4cccc5[nH]ncc45)nc(N4CCOCC4)c3s2)CC1 [GDC-0941],–,–,–,–,–,–,no effect,inhibited,unchanged,inhibited,–,–,–,–,–,activation of ribosomal S6 protein [9]: minimal impact
"CD40L: IκB degradation agonist (protein, UniProt P29965 113-261, looked up) CD40 ligand, soluble form: MQKGDQNPQIAAHVISEASSKTTSVLQWAEKGYYTMSNNLVTLENGKQLTVKRQGLYYIYAQVTFCSNREASSQAPFIASLCLKSPGRFERILLRAANTHSSAKPCGQQSIHLGGVFELQPGASVFVNVTDPSQVSHGTGFTSFGLLKL",low level of ERK activation,–,not activated,Neither ERK nor S6 were activated,–,–,–,–,–,–,IκB > NFκB,Tpl-2 > ERK/MAP kinase,not activated,PI3 kinase > Akt,Neither ERK nor S6 were activated,"Pathways Activated ([1]; pathway: P38 MAP kinase): P38 MAP kinase; decrease of the level of IκB ([1]; monocytes, between 6 and 15 minutes post treatment): approximately 60%; Pathways Activated ([2]; pathway: IκB > NFκB (Tpl-2)): IκB > NFκB (Tpl-2); Pathways Activated [2, 11]: Tpl-2 > ERK/MAP kinase; decrease of the level of IκB ([2]; lymphocytes, between 40 and 45 minutes post treatment): approximately 40%"
